# Data from PubChem BioAssay (NCI).
#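 Assay format: 96-well plates, 48-hour exposure. TGI marks complete inhibition of growth.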
# Test system: HOP-92 NSCLC
# Assay: NCI tumour cell line growth inhibition, 48 h
row,SMILES,TGI [µM]
1,CCCCCCCCCCCCCCCCOCC(Cl)CP(=O)(O)OP(=O)(O)OCC1OC(n2cnc3c(N)ncnc32)C(O)C1O (stereo not given),> 100
2,FC(F)(F)c1ccc2c(c1)nc(-c1ccccc1)n2CC1CCCN2CCCCC12 (stereo not given),65.8
3,CC(C)(C)OC(=O)NCC(=O)NC1CC=CCC1NC(=O)CNC(=O)OC(C)(C)C (stereo not given),> 100
4,CC[C@@]1(O)C(=O)OCc2c1cc1n(c2=O)Cc2c-1nc1ccccc1c2/C=N/NC(=O)C[N+](C)(C)C,> 49.3
5,CN(C)/C=N/S(=O)(=O)c1nn2c(C=O)c(-c3ccccc3)nc2s1,> 100

# Test system: HCT-116 colon
# Assay: NCI tumour cell line growth inhibition, 48 h
row,SMILES,TGI [µM]
1,CCCCCCCCCCCCCCCCOCC(Cl)CP(=O)(O)OP(=O)(O)OCC1OC(n2cnc3c(N)ncnc32)C(O)C1O (stereo not given),> 100
2,FC(F)(F)c1ccc2c(c1)nc(-c1ccccc1)n2CC1CCCN2CCCCC12 (stereo not given),30.6
3,CC(C)(C)OC(=O)NCC(=O)NC1CC=CCC1NC(=O)CNC(=O)OC(C)(C)C (stereo not given),> 100
4,CC[C@@]1(O)C(=O)OCc2c1cc1n(c2=O)Cc2c-1nc1ccccc1c2/C=N/NC(=O)C[N+](C)(C)C,> 100
5,CN(C)/C=N/S(=O)(=O)c1nn2c(C=O)c(-c3ccccc3)nc2s1,13.1

# Test system: SK-MEL-28 melanoma
# Assay: NCI tumour cell line growth inhibition, 48 h
row,SMILES,TGI [µM]
1,CCCCCCCCCCCCCCCCOCC(Cl)CP(=O)(O)OP(=O)(O)OCC1OC(n2cnc3c(N)ncnc32)C(O)C1O (stereo not given),> 100
2,FC(F)(F)c1ccc2c(c1)nc(-c1ccccc1)n2CC1CCCN2CCCCC12 (stereo not given),35.3
3,CC(C)(C)OC(=O)NCC(=O)NC1CC=CCC1NC(=O)CNC(=O)OC(C)(C)C (stereo not given),> 100
4,CC[C@@]1(O)C(=O)OCc2c1cc1n(c2=O)Cc2c-1nc1ccccc1c2/C=N/NC(=O)C[N+](C)(C)C,> 100
5,CN(C)/C=N/S(=O)(=O)c1nn2c(C=O)c(-c3ccccc3)nc2s1,29.8

# Test system: RPMI-8226 leukemia
# Assay: NCI tumour cell line growth inhibition, 48 h
row,SMILES,TGI [µM]
1,FC(F)(F)c1ccc2c(c1)nc(-c1ccccc1)n2CC1CCCN2CCCCC12 (stereo not given),> 100
2,CC(C)(C)OC(=O)NCC(=O)NC1CC=CCC1NC(=O)CNC(=O)OC(C)(C)C (stereo not given),> 100
3,CC[C@@]1(O)C(=O)OCc2c1cc1n(c2=O)Cc2c-1nc1ccccc1c2/C=N/NC(=O)C[N+](C)(C)C,> 100
4,CN(C)/C=N/S(=O)(=O)c1nn2c(C=O)c(-c3ccccc3)nc2s1,42.9

# Test system: IGROV1 ovarian
# Assay: NCI tumour cell line growth inhibition, 48 h
row,SMILES,TGI [µM]
1,CCCCCCCCCCCCCCCCOCC(Cl)CP(=O)(O)OP(=O)(O)OCC1OC(n2cnc3c(N)ncnc32)C(O)C1O (stereo not given),> 100
2,FC(F)(F)c1ccc2c(c1)nc(-c1ccccc1)n2CC1CCCN2CCCCC12 (stereo not given),50.4
3,CC(C)(C)OC(=O)NCC(=O)NC1CC=CCC1NC(=O)CNC(=O)OC(C)(C)C (stereo not given),> 100
4,CC[C@@]1(O)C(=O)OCc2c1cc1n(c2=O)Cc2c-1nc1ccccc1c2/C=N/NC(=O)C[N+](C)(C)C,> 100

# Test system: CCRF-CEM leukemia
# Assay: NCI tumour cell line growth inhibition, 48 h
row,SMILES,TGI [µM]
1,CCCCCCCCCCCCCCCCOCC(Cl)CP(=O)(O)OP(=O)(O)OCC1OC(n2cnc3c(N)ncnc32)C(O)C1O (stereo not given),> 100
2,CC(C)(C)OC(=O)NCC(=O)NC1CC=CCC1NC(=O)CNC(=O)OC(C)(C)C (stereo not given),> 100
3,CN(C)/C=N/S(=O)(=O)c1nn2c(C=O)c(-c3ccccc3)nc2s1,9.8

# Test system: RXF 393 renal
# Assay: NCI tumour cell line growth inhibition, 48 h
row,SMILES,TGI [µM]
1,CCCCCCCCCCCCCCCCOCC(Cl)CP(=O)(O)OP(=O)(O)OCC1OC(n2cnc3c(N)ncnc32)C(O)C1O (stereo not given),> 100
2,FC(F)(F)c1ccc2c(c1)nc(-c1ccccc1)n2CC1CCCN2CCCCC12 (stereo not given),75.5
3,CC(C)(C)OC(=O)NCC(=O)NC1CC=CCC1NC(=O)CNC(=O)OC(C)(C)C (stereo not given),> 100
4,CC[C@@]1(O)C(=O)OCc2c1cc1n(c2=O)Cc2c-1nc1ccccc1c2/C=N/NC(=O)C[N+](C)(C)C,11.7
5,CN(C)/C=N/S(=O)(=O)c1nn2c(C=O)c(-c3ccccc3)nc2s1,49

# Test system: A498 renal
# Assay: NCI tumour cell line growth inhibition, 48 h
row,SMILES,TGI [µM]
1,CCCCCCCCCCCCCCCCOCC(Cl)CP(=O)(O)OP(=O)(O)OCC1OC(n2cnc3c(N)ncnc32)C(O)C1O (stereo not given),> 100
2,FC(F)(F)c1ccc2c(c1)nc(-c1ccccc1)n2CC1CCCN2CCCCC12 (stereo not given),69.1
3,CC(C)(C)OC(=O)NCC(=O)NC1CC=CCC1NC(=O)CNC(=O)OC(C)(C)C (stereo not given),> 100
4,CC[C@@]1(O)C(=O)OCc2c1cc1n(c2=O)Cc2c-1nc1ccccc1c2/C=N/NC(=O)C[N+](C)(C)C,> 65.1
5,CN(C)/C=N/S(=O)(=O)c1nn2c(C=O)c(-c3ccccc3)nc2s1,> 100

# Test system: NCI-H522 lung
# Assay: NCI tumour cell line growth inhibition, 48 h
row,SMILES,TGI [µM]
1,CCCCCCCCCCCCCCCCOCC(Cl)CP(=O)(O)OP(=O)(O)OCC1OC(n2cnc3c(N)ncnc32)C(O)C1O (stereo not given),> 100
2,FC(F)(F)c1ccc2c(c1)nc(-c1ccccc1)n2CC1CCCN2CCCCC12 (stereo not given),28.7
3,CC(C)(C)OC(=O)NCC(=O)NC1CC=CCC1NC(=O)CNC(=O)OC(C)(C)C (stereo not given),> 100
4,CC[C@@]1(O)C(=O)OCc2c1cc1n(c2=O)Cc2c-1nc1ccccc1c2/C=N/NC(=O)C[N+](C)(C)C,> 100
5,CN(C)/C=N/S(=O)(=O)c1nn2c(C=O)c(-c3ccccc3)nc2s1,15.8

# Test system: LOX IMVI melanoma
# Assay: NCI tumour cell line growth inhibition, 48 h
row,SMILES,TGI [µM]
1,CCCCCCCCCCCCCCCCOCC(Cl)CP(=O)(O)OP(=O)(O)OCC1OC(n2cnc3c(N)ncnc32)C(O)C1O (stereo not given),> 100
2,FC(F)(F)c1ccc2c(c1)nc(-c1ccccc1)n2CC1CCCN2CCCCC12 (stereo not given),29.1
3,CC(C)(C)OC(=O)NCC(=O)NC1CC=CCC1NC(=O)CNC(=O)OC(C)(C)C (stereo not given),> 100
4,CC[C@@]1(O)C(=O)OCc2c1cc1n(c2=O)Cc2c-1nc1ccccc1c2/C=N/NC(=O)C[N+](C)(C)C,> 37.6
5,CN(C)/C=N/S(=O)(=O)c1nn2c(C=O)c(-c3ccccc3)nc2s1,> 89

# Test system: SW-620 colon
# Assay: NCI tumour cell line growth inhibition, 48 h
row,SMILES,TGI [µM]
1,CCCCCCCCCCCCCCCCOCC(Cl)CP(=O)(O)OP(=O)(O)OCC1OC(n2cnc3c(N)ncnc32)C(O)C1O (stereo not given),> 100
2,FC(F)(F)c1ccc2c(c1)nc(-c1ccccc1)n2CC1CCCN2CCCCC12 (stereo not given),69.9
3,CC(C)(C)OC(=O)NCC(=O)NC1CC=CCC1NC(=O)CNC(=O)OC(C)(C)C (stereo not given),> 100
4,CC[C@@]1(O)C(=O)OCc2c1cc1n(c2=O)Cc2c-1nc1ccccc1c2/C=N/NC(=O)C[N+](C)(C)C,> 100
5,CN(C)/C=N/S(=O)(=O)c1nn2c(C=O)c(-c3ccccc3)nc2s1,20.2

# Test system: MDA-MB-231 breast
# Assay: NCI tumour cell line growth inhibition, 48 h
row,SMILES,TGI [µM]
1,CCCCCCCCCCCCCCCCOCC(Cl)CP(=O)(O)OP(=O)(O)OCC1OC(n2cnc3c(N)ncnc32)C(O)C1O (stereo not given),> 100
2,FC(F)(F)c1ccc2c(c1)nc(-c1ccccc1)n2CC1CCCN2CCCCC12 (stereo not given),29.4
3,CC(C)(C)OC(=O)NCC(=O)NC1CC=CCC1NC(=O)CNC(=O)OC(C)(C)C (stereo not given),> 100
4,CC[C@@]1(O)C(=O)OCc2c1cc1n(c2=O)Cc2c-1nc1ccccc1c2/C=N/NC(=O)C[N+](C)(C)C,> 100
5,CN(C)/C=N/S(=O)(=O)c1nn2c(C=O)c(-c3ccccc3)nc2s1,> 74.9

# Test system: SK-OV-3 ovarian
# Assay: NCI tumour cell line growth inhibition, 48 h
row,SMILES,TGI [µM]
1,CCCCCCCCCCCCCCCCOCC(Cl)CP(=O)(O)OP(=O)(O)OCC1OC(n2cnc3c(N)ncnc32)C(O)C1O (stereo not given),> 100
2,FC(F)(F)c1ccc2c(c1)nc(-c1ccccc1)n2CC1CCCN2CCCCC12 (stereo not given),37.3
3,CC(C)(C)OC(=O)NCC(=O)NC1CC=CCC1NC(=O)CNC(=O)OC(C)(C)C (stereo not given),> 100
4,CC[C@@]1(O)C(=O)OCc2c1cc1n(c2=O)Cc2c-1nc1ccccc1c2/C=N/NC(=O)C[N+](C)(C)C,> 100
5,CN(C)/C=N/S(=O)(=O)c1nn2c(C=O)c(-c3ccccc3)nc2s1,> 100

# Test system: HOP-62 NSCLC
# Assay: NCI tumour cell line growth inhibition, 48 h
row,SMILES,TGI [µM]
1,CCCCCCCCCCCCCCCCOCC(Cl)CP(=O)(O)OP(=O)(O)OCC1OC(n2cnc3c(N)ncnc32)C(O)C1O (stereo not given),> 100
2,FC(F)(F)c1ccc2c(c1)nc(-c1ccccc1)n2CC1CCCN2CCCCC12 (stereo not given),> 100
3,CC(C)(C)OC(=O)NCC(=O)NC1CC=CCC1NC(=O)CNC(=O)OC(C)(C)C (stereo not given),> 100
4,CN(C)/C=N/S(=O)(=O)c1nn2c(C=O)c(-c3ccccc3)nc2s1,> 100

# Test system: ACHN renal
# Assay: NCI tumour cell line growth inhibition, 48 h
row,SMILES,TGI [µM]
1,CCCCCCCCCCCCCCCCOCC(Cl)CP(=O)(O)OP(=O)(O)OCC1OC(n2cnc3c(N)ncnc32)C(O)C1O (stereo not given),> 100
2,FC(F)(F)c1ccc2c(c1)nc(-c1ccccc1)n2CC1CCCN2CCCCC12 (stereo not given),56.5
3,CC(C)(C)OC(=O)NCC(=O)NC1CC=CCC1NC(=O)CNC(=O)OC(C)(C)C (stereo not given),> 100
4,CN(C)/C=N/S(=O)(=O)c1nn2c(C=O)c(-c3ccccc3)nc2s1,21.1

# Test system: TK-10 renal
# Assay: NCI tumour cell line growth inhibition, 48 h
row,SMILES,TGI [µM]
1,CCCCCCCCCCCCCCCCOCC(Cl)CP(=O)(O)OP(=O)(O)OCC1OC(n2cnc3c(N)ncnc32)C(O)C1O (stereo not given),> 100
